According to patent publication US11008332B2, “Pharmaceutical composition for preventing or treating aging-related diseases containing decursin derivative as active ingredient” (PRG S&TECH INC., priority 2017, dated 2021):
“Also recorded” adds a separate entry of the source.

Key:
[1] = Chemical pharmacokinetic (PK) analysis, blood/plasma concentration by LC-MS/MS; format: in vivo; details: FIG. 2A
Method: For PK analysis, 5 mg/kg of JH4 in 10% DMSO, 5% Tween […] solution was intravenously injected and 10 mg/kg of JH4 in 10% NMP and 90% PEG400 solution was per orally delivered. At the setting time-points, blood concentration of JH4 was determined by LC-MS/MS analysis and the PK analysis for other chemicals was also tested by the similar protocol.

Plasma protein [2] = experiment: Plasma protein binding, human; format: in vitro ADME
Method: (§7) In vitro ADME studies (plasma protein binding, CYP inhibition, microsomal stability, plasma stability and hERG inhibition) were performed by New drug development center though standard protocols.

Plasma protein [3] = experiment: Plasma protein binding, rat; format: in vitro ADME
Method: as §7

Plasma stability, rat = format: in vitro ADME
[4] = Liver microsomal stability, human; format: in vitro ADME
Method: as §7

[5] = Liver microsomal stability, rat; format: in vitro ADME
[6] = Liver microsomal stability, mouse; format: in vitro ADME
CYP2C9 = CYP2C9 (Homo sapiens, UniProt P11712); experiment: CYP inhibition CYP2C9; format: in vitro ADME
Method: as §7

CYP2C19 = CYP2C19 (Homo sapiens, UniProt P33261); experiment: CYP inhibition CYP2C19; format: in vitro ADME
Method: as §7

CYP2D6 = CYP2D6 (Homo sapiens, UniProt P10635); experiment: CYP inhibition CYP2D6; format: in vitro ADME
Method: as §7

hERG ion channel = hERG ion channel (Homo sapiens, UniProt Q12809); experiment: hERG inhibition (in vitro ADME); details: in vitro ADME analysis, FIG. 2B
[7] = test system: progerin expression in progerin-transfected 293 cells; experiment: Progerin expression analysis in progerin-transfected 293 cells (Western blot); format: cell-based; details: 24 hours, FIG. 1D
Method: HEK293 cell line, obtained from ATCC, were maintained in liquid medium (DMEM) containing 10% FBS and 1% antibiotics at 37° C.
Whole-cell lysates were prepared in RIPA.
15 μg of cell extracts were separated by SDS-PAGE and transferred onto a PVDF membrane.
The membrane was incubated for 1 h to overnight at 4° C. with primary antibody, followed by reaction with a secondary antibody at room temperature for 1 h.
Peroxidase activity was detected by chemiluminescence with ECL kit (Intron, Seoul, Korea) as recommended by its manufacturer.

HGPS cells = experiment: Immunofluorescence staining of HGPS cells (nuclear morphology, progerin, H3K9me3); format: cell-based, Human
Method: (§1) Human fibroblast cells from HGPS patients (AG03198, person; AG03199; person), WS patients (AG06300, person; AG03141, person; AG00780, person) and controls (GM 00038, person) were obtained from the Coriell Cell Repositories (Camden, N.J., USA) and were maintained in EMEM, containing 15% FBS, 2 mM glutamine or HEMEM with 26 mM HEPES without antibiotics.
(§2) Cells were seeded on a cover glass and transfected with the indicated vectors.
(§3) After fixing with 100% methanol or 1% paraformaldehyde (PFA) for 1 h at 4° C., cells were incubated with blocking buffer (PBS+anti-human-Ab; 1:400) for 1 h.
(§4) After washing with PBS twice, cells were incubated with anti-Lamin A/C, Progerin or H3K9Me3 in blocking buffer (1:200) overnight and sequentially with anti-goat Ab-FITC or anti-rabbit Ab-rhodamin in blocking buffer (1:500) for 7 h and mounted, and nucleus was stained with DAPI. Thereafter Immunofluorescence signal was detected by fluorescence microscopy (Zeiss and Logos).
(§5) For counting nuclear deformed cell, obtained immunofluorescence images were used. Nuclear membrane showing abnormalities, dependent on Lamin A staining, were counted from randomly selected field. Counted cells were calculated percentage.

WS cells = experiment: Immunofluorescence staining of Werner syndrome (WS) patient cells (nuclear morphology, proliferation, H3K9me3); format: cell-based, Human
Method: as §1, §2, §3, §4, §5
To measure the cell proliferation, DAPI stained cells were counted from immunofluorescence images.

[8] = test system: Lmna^G609G/G609G, progeria model mouse; experiment: Life span, body weight and morphology of Lmna^G609G/G609G progeria model mice; format: in vivo
Method: The experiments were performed in the Association for Assessment and Accreditation of Laboratory Animal Care certified facility, in compliance with animal policies approved by Pusan National University.
Lmna^G609G/609G mice were generated as timed mating of heterozygous Lmna^+/G609G provided by Carlos López-Otin (Universidad de Oviedo, Asturias, Oviedo, Spain).
SLC-D011, mixed with DMOS and PBS, were intraperitoneally injected in mice (20 mg/kg twice per week from 5-week-old). In addition, SLC-D011 dissolved at a concentration of 10 mg/ml in monoolein-based solution was orally administrated to mice in 5 times a week and control mice were treated in the same conditions by administering monoolein-based solution alone.
Lmna^G609G/609G mice were treated with clear chemical solution throughout life span, starting from 5 weeks of age. Lmna^+/G609G were treated via intraperitoneal, starting from 32 weeks of age.

Lmna^wt/G609G mice = experiment: Life span and morphology of Lmna^wt/G609G mice; format: in vivo, mouse
[9] = test system: collagen 1A expression in HaCaT cells; experiment: Collagen 1A expression in HaCaT cells (Western blot); format: cell-based, human; details: 2 or 5 μM, 24 hours, FIG. 5A
Method: (§6) Human keratinocyte HaCaT cells and normal fibroblast 9N (GM 00038, person) and N46 (AG13299, person) were treated with 2 or 5 μM SLC-D011 and incubated for 24 hours and then the amount of collagen 1A expression was confirmed in HaCaT cells and fibroblasts was confirmed.

[10] = test system: collagen 1A expression in normal fibroblast; experiment: Collagen 1A expression in normal fibroblasts 9N and N46 (Western blot); format: cell-based, human; details: normal fibroblast 9N and N46, 2 or 5 μM, 24 hours, FIG. 5B
Method: as §6

Water solubility = format: physicochemical
[11] = Stability in monoolein-based solution on heating and sonication (LC-MS); format: physicochemical; details: heating at 80° C. and sonication, FIG. 3B
[12] = Lmna^G609G/G609G mice, 20 mg/kg i.p injection twice per week from 5 week age, FIG. 2C
[13] = Lmna^G609G/G609G mice, oral gavage 50 mg/kg daily in monoolein solution from 5 weeks old, FIG. 3C
[14] = Lmna^wt/G609G mice, injection started from 43 weeks old, FIG. 2E

Sequence of CYP2D6 (P10635 whole entry): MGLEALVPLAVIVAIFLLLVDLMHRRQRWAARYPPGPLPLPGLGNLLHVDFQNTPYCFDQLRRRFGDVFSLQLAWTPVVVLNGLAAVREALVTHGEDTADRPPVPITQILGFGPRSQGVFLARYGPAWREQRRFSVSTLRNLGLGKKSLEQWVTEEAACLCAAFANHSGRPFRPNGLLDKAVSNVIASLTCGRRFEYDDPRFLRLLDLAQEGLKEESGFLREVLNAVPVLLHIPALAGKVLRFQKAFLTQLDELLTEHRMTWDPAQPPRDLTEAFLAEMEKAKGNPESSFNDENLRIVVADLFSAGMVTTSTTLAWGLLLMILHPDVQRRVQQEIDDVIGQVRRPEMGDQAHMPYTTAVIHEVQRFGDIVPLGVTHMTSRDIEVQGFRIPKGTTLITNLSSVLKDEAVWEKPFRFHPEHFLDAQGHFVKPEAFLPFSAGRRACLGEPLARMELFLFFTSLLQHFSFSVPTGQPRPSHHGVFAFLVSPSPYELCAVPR
Sequence of CYP2C9 (P11712 whole entry): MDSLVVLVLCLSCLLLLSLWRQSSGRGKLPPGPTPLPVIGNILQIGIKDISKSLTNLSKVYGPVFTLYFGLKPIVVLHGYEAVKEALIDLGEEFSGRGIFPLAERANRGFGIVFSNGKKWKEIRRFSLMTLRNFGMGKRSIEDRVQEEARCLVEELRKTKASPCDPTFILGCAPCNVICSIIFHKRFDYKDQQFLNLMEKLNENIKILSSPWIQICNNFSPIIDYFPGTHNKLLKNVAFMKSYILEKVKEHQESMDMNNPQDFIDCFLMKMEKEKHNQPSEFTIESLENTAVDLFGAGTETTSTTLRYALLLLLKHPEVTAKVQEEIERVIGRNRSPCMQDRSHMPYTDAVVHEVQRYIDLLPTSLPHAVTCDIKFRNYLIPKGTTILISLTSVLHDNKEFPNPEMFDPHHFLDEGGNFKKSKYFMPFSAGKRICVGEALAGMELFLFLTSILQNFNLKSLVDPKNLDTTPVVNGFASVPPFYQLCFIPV
Sequence of hERG ion channel (Q12809 whole entry): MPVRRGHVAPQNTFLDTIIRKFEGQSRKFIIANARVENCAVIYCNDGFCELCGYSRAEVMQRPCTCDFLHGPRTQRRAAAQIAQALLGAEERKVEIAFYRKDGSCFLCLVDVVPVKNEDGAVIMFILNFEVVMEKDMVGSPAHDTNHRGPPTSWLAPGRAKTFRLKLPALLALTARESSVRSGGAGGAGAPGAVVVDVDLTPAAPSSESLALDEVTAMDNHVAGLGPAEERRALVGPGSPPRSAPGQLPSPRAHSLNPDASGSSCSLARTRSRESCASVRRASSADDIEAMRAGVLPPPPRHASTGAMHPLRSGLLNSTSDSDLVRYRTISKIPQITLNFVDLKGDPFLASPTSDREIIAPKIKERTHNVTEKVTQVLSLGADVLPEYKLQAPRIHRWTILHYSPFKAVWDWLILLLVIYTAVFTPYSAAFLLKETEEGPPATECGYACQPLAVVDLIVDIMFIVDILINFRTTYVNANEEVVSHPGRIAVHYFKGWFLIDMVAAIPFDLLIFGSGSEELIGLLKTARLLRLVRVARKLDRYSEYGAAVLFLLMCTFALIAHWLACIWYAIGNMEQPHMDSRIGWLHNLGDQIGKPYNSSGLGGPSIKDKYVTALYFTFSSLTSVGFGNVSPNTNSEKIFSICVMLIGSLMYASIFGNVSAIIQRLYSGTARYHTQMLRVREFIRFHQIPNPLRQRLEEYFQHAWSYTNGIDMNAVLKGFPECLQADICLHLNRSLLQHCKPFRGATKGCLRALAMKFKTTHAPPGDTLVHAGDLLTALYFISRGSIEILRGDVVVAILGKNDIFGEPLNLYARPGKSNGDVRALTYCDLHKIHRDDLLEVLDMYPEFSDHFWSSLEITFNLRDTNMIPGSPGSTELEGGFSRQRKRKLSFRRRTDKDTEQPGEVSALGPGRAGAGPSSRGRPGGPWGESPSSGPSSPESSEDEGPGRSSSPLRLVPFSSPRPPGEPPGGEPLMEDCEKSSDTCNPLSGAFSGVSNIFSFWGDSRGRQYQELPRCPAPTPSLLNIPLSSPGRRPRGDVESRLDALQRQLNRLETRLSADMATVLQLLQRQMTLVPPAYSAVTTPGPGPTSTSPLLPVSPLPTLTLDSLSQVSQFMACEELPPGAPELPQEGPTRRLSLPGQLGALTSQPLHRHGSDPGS
Sequence of CYP2C19 (P33261 whole entry): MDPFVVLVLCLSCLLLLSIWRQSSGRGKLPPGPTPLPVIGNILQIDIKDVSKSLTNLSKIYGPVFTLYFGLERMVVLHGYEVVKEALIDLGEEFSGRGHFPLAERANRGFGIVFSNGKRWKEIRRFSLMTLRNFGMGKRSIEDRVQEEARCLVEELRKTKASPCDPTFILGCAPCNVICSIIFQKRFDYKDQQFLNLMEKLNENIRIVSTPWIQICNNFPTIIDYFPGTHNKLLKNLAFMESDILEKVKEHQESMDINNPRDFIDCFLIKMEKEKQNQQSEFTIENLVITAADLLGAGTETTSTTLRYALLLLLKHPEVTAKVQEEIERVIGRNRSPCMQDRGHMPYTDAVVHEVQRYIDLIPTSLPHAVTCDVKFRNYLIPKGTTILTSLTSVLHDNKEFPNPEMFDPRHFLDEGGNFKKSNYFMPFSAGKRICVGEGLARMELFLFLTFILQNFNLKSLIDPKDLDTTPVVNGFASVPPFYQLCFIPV

SMILES: CC1(C)Oc2cc3oc(=O)ccc3cc2C[C@@H]1OC/C=C/c1ccccc1 [SLC-D011, (7S)-(+)-8,8-dimethyl-7-(3-phenyl-allyloxy)-7,8-dihydro-6H-pyrano[3,2-g]chromen-2-one]
- bioavailability ([1]; blood, oral, PK analysis, read-out: bioavailability (B.A.)): 66%
- PK profile ([1]; in vivo PK analysis): proper PK profile
- Plasma protein binding Human (% Bound) (Plasma protein [2]): 99.9 % Bound
- Plasma protein binding Rat (% Bound) (Plasma protein [3]): 99.8 % Bound
- Plasma stability (% remaining) Rat 30 min (Plasma stability, rat; 30 min): 83.6 % remaining
- Plasma stability (% remaining) Rat 120 min (Plasma stability, rat; 120 min): 75.1 % remaining
- Liver microsomal stability (% remaining during 30 min) Human (%) [4]: 21.5%
- Liver microsomal stability (% remaining during 30 min) Rat (%) [5]: 17.4%
- Liver microsomal stability (% remaining during 30 min) Mouse (%) [6]: 59.7%
- CYP inhibition CYP2C9 (CYP2C9): 78.4
- CYP inhibition CYP2C19 (CYP2C19): 28.8
- CYP inhibition CYP2D6 (CYP2D6): 91.7
- hERG ion channel inhibition (hERG ion channel): severe hERG inhibition was not observed
- progerin expression [7]: inhibiting progerin expression; also recorded: obviously suppresses progerin expression
- nuclear abnormality of HGPS cells (HGPS cells; HGPS cells incubated 48 hr, FIG. 1E): improved nuclear abnormality of HGPS cells
- progerin expression in HGPS cells (HGPS cells; HGPS cells incubated 48 hr, progerin staining, FIG. 1E): reduces progerin expression
- H3K9me3 expression in HGPS cells (HGPS cells; immunostaining, FIG. 1F): induced H3K9me3 expression
- nuclear morphology of WS cells (WS cells; WS cells incubated 48 hr, FIG. 4F): improved nuclear morphology
- H3K9me3 expression in WS cells (WS cells; WS cells incubated 48 hr, FIG. 4G): induced expression of H3K9me3
- cell proliferation of WS cells (WS cells; WS patient cells, FIG. 4F): improved nuclear morphology and cell proliferation
- life-span extended to ([8]; Lamn^G609G/G609G mice, i.p injection): 20 weeks
- body size and gross morphology ([8]; Lamn^G609G/G609G mice, i.p injection, FIG. 2D): body size increase and gross morphology were also improved
- lifespan extension ([8]; Lamn^G609G/G609G mice, oral administration in olein-based solution): 4.5 weeks
- average (ave) life span [8, 12]: 19.5 weeks
- maximum (max) life span [8, 12]: 21 weeks
- body weight increase compared to vehicle group ([8]; Lmna^G609G/G609G mice, oral administration, FIG. 3D): about 35%
- body size at 8 weeks old ([8]; Lmna^G609G/G609G mice, oral administration, FIG. 3E): apparently larger than that of vehicle-mouse
- average life span [8, 13]: 19.3 weeks
- maximum life span [8, 13]: 19.5 weeks
- lifespan extended from 45 to (Lmna^wt/G609G mice; Lamn^wt/G609G model): 64 weeks
- average life span (Lmna^wt/G609G mice; [14]): 65 weeks
- maximum (max) life span (Lmna^wt/G609G mice; [14]): 66 weeks
- morphology such as hair condition and body size (Lmna^wt/G609G mice; Lmna^wt/G609G mouse, FIG. 2F): greatly improved
- collagen expression in keratinocytes [9]: increasing collagen expression
- collagen expression in fibroblasts [10]: increasing collagen expression
- water solubility (Water solubility): very low water solubility
- stability in solution on heating and ultrasonic treatment [11]: stable without being decomposed even by heating and ultrasonic treatment
